# Source: article PMC7757078, “Comparative in vitro analysis of inhibition of rhinovirus and influenza virus replication by mucoactive secretolytic agents and plant extracts” (BMC Complementary Medicine and Therapies, 2020)
# Counter-ions that a name gives are not always drawn. Like-named read-outs stand apart in the source and are kept apart here. Marks after values point to notes of the source that are not given here.
# Columns and labels:
# HeLa Ohio cells = assay: Cytotoxicity determination in HeLa Ohio cells (crystal violet, 72 h); type: cell-based, human; conditions: for 50% Cytotoxic concentration in HeLa cells, Mean: 72 h
# Description: HeLa Ohio and MDCK cells were seeded at 1.6 × 10^4 and 2.3 × 10^4 cells/well in 100 μL growth medium in 96 well flat-bottomed microtiter plates, respectively. The cytotoxicity of the test compounds and extracts was determined on two-day-old confluent cell monolayers grown in the internal 60 wells of a microtiter plate (5% carbon dioxide, 37 °C). After removal of the growth medium, 50 μL of test medium and eight half-log dilutions of the reference compounds pleconaril or zanamivir, or eight half-log dilutions of test items in test medium (each concentration in duplicates) were added. The concentration range of reference compounds applied to cytotoxicity assays was 0.0316–100 μM. […] Six cell control wells were incubated with 100 μL test medium. After 72 h of incubation at 37 °C in 5% carbon dioxide atmosphere, the Dynex Immuno Assay System (Guernsey, UK), developed for automated ELISA techniques, was applied to gently wash, stain, measure, and analyze the viability of the cell monolayers based on optical density determination. After aspiration of supernatant, cell monolayers were washed three times with 300 μL physiological phosphate-buffered saline to remove death cells. The remaining cells were fixed and stained with 50 μL of 0.07% crystal violet (w/v), 20% ethanol, 3% formalin solution in water for 10 min. Six washings with 300 μL of water followed to remove excess stain. Before measuring the optical density, we solubilized the crystal violet by adding 100 μL lysis buffer (0.898 g of sodium citrate and 1.25 mL of 1 N HCl in 98.05 mL 47.5% ethanol) for 20 min. The absorbances were red at two wavelengths (550 and 690 nm). Cell viability in a well was defined as the percentage of the mean value of optical density resulting from the six cell controls, which was set 100% cell viability. The inhibitor concentration that reduces the mean value of optical density determined for cell controls by half is called 50% cytotoxic concentration (CC50). A minimum of three independent experiments were performed.
# rhinovirus B14 [1] = assay: CPE inhibitory assay with rhinovirus B14 in HeLa Ohio cells; type: cell-based; conditions: for CPE inhibition at non-cytotoxic concentrations: 0.0316–100 μM
# [2] = test system: influenza virus A/Jena/8178/09; conditions: for CPE inhibition at non-cytotoxic concentrations: 0.0316–100 μM; for CPE inhibition at non-cytotoxic concentrations / Effect on influenza virus A/Jena/8178/09-induced CPE (in words): MDCK cells; for Effect on influenza virus A/Jena/8178/09-induced CPE (in words): non-cytotoxic concentrations
# [3] = test system: influenza virus A/Hong Kong/68; conditions: for CPE inhibition at non-cytotoxic concentrations: 0.0316–100 μM; for Effect on influenza virus A/Hong Kong/68-induced CPE (in words): non-cytotoxic concentrations
# rhinovirus B14 [4] = conditions: 3-day pretreatment of primary human tracheal epithelial cells; cited from earlier work
# rhinovirus A2 = assay: CPE inhibitory assay with rhinovirus A2 in HeLa Ohio cells; conditions: for CPE inhibition at non-cytotoxic concentrations: 0.0316–100 μM, HeLa Ohio cells
# [5] = following the application of 600 mg; cited from earlier work
# [6] = test system: rhinovirus (stored under rhinovirus A2; the sentence does not specify which rhinovirus); assay: in vitro; conditions: human
# [7] = test system: influenza virus A/Hong Kong/68; assay: organism not typed; conditions: MDCK, read-out: 50% Inhibitory concentration against Influenza A viruses HK/68, Mean
# [8] = test system: influenza virus A/Jena/8178/09; assay: Hemagglutination inhibition assay with human erythrocytes; parameters: species or system influenza A virus (H1N1pdm09); conditions: 4 hemagglutination units, maximum test concentration 1 μM
# Description: (§1) The negative control (no hemagglutination) consists only 50 μL phosphate-buffered saline (n = 8). […] We added 50 μL of a 1% human erythrocytes solution to each well of the microplate. After a two-hour incubation at 4 °C, we recorded the lowest compound concentration that induces hemagglutination or inhibits virus-mediated hemagglutination (minimum hemagglutination or hemagglutination inhibitory concentration, respectively).
# human erythrocytes = assay: Hemagglutination by test item in the absence of virus; conditions: maximum test concentration 1 μM
# Description: as §1
# viral neuraminidase = conditions: 37 °C for 24 h
# Description: Thereafter, we incubated the assays at 37 °C for further 24 h allowing viral neuraminidase activation [43]. The activated viral neuraminidase abrogates the virus-mediated hemagglutination in absence of inhibitors (hemagglutination control) or in the presence of ineffective inhibitor concentrations. Neuraminidase inhibitors prevent this abrogation of virus-mediated hemagglutination.
# [9] = test system: influenza virus A/Hong Kong/68; assay: Time-of-addition plaque-reduction assay in MDCK cells; conditions: pelargonium extract 50 μg/mL, zanamivir 1 μM
# [10] = test system: influenza virus A/Jena/8178/09; assay: organism not typed; conditions: MDCK, read-out: 50% Inhibitory concentration against Influenza A viruses Jena/8178, Mean
compound,measurement,setting,value
"Nc1c(Br)cc(Br)cc1CN[C@H]1CC[C@H](O)CC1 [Ambroxol, ambroxol]","50% Cytotoxic concentration in HeLa cells, Mean",HeLa Ohio cells; HeLa Ohio cells,61.24 µM
same,"50% Cytotoxic concentration in HeLa cells, Mean","HeLa Ohio cells; HeLa Ohio cells, listed as ambroxol",51.85 µM
same,CPE inhibition at non-cytotoxic concentrations,rhinovirus B14 [1],< 50%
same,CPE inhibition at non-cytotoxic concentrations,[2],less than 50%
same,Effect on influenza virus A/Jena/8178/09-induced CPE (in words),[2],did not show any effect
same,CPE inhibition at non-cytotoxic concentrations,[3]; MDCK cells,less than 50%
same,Effect on influenza virus A/Hong Kong/68-induced CPE (in words),[3]; MDCK cells,did not show any effect
same,"50% Cytotoxic concentration in MDCK cells, Mean","MDCK cells; MDCK cells, 72 h",> 100^a μM
same,Concentration reducing the titer of rhinovirus B14 in the supernatant,rhinovirus B14 [4],at least 0.1 μM
same,CPE inhibition at non-cytotoxic concentrations,rhinovirus A2,< 50%
"CN(Cc1cc(Br)cc(Br)c1N)C1CCCCC1 [Bromhexine, bromhexine hydrochloride]","50% Cytotoxic concentration in HeLa cells, Mean",HeLa Ohio cells; HeLa Ohio cells,51.85 µM
same,"50% Cytotoxic concentration in HeLa cells, Mean","HeLa Ohio cells; HeLa Ohio cells, listed as bromhexine",61.24 µM
same,CPE inhibition at non-cytotoxic concentrations,rhinovirus B14 [1],< 50%
same,CPE inhibition at non-cytotoxic concentrations,[2],less than 50%
same,CPE inhibition at non-cytotoxic concentrations,[3]; MDCK cells,less than 50%
same,Reduction of influenza virus A/Hong Kong/68-induced CPE,"[3]; at 31.6 μM, MDCK cells",30%
same,Cytotoxic concentration in MDCK cells,MDCK cells; MDCK cells,100 µM
same,"50% Cytotoxic concentration in MDCK cells, Mean","MDCK cells; MDCK cells, 72 h",51.29 µM
same,CPE inhibition at non-cytotoxic concentrations,rhinovirus A2,< 50%
CC(=O)N[C@@H](CS)C(=O)O [N-acetylcysteine],"50% Cytotoxic concentration in HeLa cells, Mean",HeLa Ohio cells; HeLa Ohio cells,> 100^a μM
same,Cytotoxicity in HeLa Ohio cells (in words),HeLa Ohio cells; tested concentration range,non-cytotoxic
same,CPE inhibition at non-cytotoxic concentrations,[2],less than 50%
same,Effect on influenza virus A/Jena/8178/09-induced CPE (in words),[2],did not show any effect
same,CPE inhibition at non-cytotoxic concentrations,[3]; MDCK cells,less than 50%
same,Effect on influenza virus A/Hong Kong/68-induced CPE (in words),[3]; MDCK cells,did not show any effect
same,"50% Cytotoxic concentration in MDCK cells, Mean",MDCK cells,> 100^a μM
same,Maximal plasma concentration,[5],about 16 μM
"Cc1cc(CCCOc2c(C)cc(-c3noc(C(F)(F)F)n3)cc2C)on1 [Pleconaril, pleconaril]",Concentration above which a marked dose-dependent cytotoxic effect was seen,HeLa Ohio cells; HeLa Ohio cells,higher than 10 μM
same,"50% Cytotoxic concentration in HeLa cells, Mean",HeLa Ohio cells; HeLa Ohio cells,28.75 µM
same,IC50,"rhinovirus B14 [1]; n.a. = not active up to the maximum non-cytotoxic concentration, read-out: 50% Inhibitory concentration against Rhinoviruses B14, Mean",25 nM
same,selectivity ratio,[6],> 3500
same,IC50,"rhinovirus A2; HeLa, read-out: 50% Inhibitory concentration against Rhinoviruses A2, Mean",8 nM
"CC(=O)N[C@H]1[C@H]([C@H](O)[C@H](O)CO)OC(C(=O)O)=C[C@@H]1N=C(N)N [Zanamivir, zanamivir]",IC50,[7],8 nM
same,Inhibition of virus-mediated hemagglutination (in words),[8],neither mediated nor inhibited
same,Induction of hemagglutination (in words),human erythrocytes,neither mediated nor inhibited
same,Minimal neuraminidase inhibitory concentration,viral neuraminidase,0.03 µM
same,"Plaque production, treatment during adsorption",[9]; 4 °C for 2 h,did not prevent
same,"Plaque production, pre-treatment of cells",[9]; 1 h at 37 °C before infection,did not prevent
same,"Plaque production, pre-treatment of virus",[9]; 1 h at 37 °C before infection,did not prevent
same,"Plaque production, treatment after adsorption",[9]; in agar overlay for 72 h,completely blocked
same,"Plaque production, treatment during and after adsorption",[9],completely blocked
same,Selectivity index against Influenza A viruses Jena/8178,[2],"> 14,285"
same,Selectivity index against Influenza A viruses HK/68,[3],"> 12,500"
same,IC50,[10],7 nM
same,"50% Cytotoxic concentration in MDCK cells, Mean","MDCK cells; MDCK cells, 72 h",> 100^a μM
same,Cytotoxicity in MDCK cells (in words),MDCK cells; tested concentrations,well tolerated
